Assay results published in publication PMC9817970 (Cancers, 2022).

Columns and labels:
Assay in all cases: Kinase panel profiling
Assay type in all cases: biochemical
Settings in all cases: 10 μM ATP
[1] = biological target: T1, TLK1 (Homo sapiens, UniProt Q9UKI8)
T1 construct: purchased Reaction Biology Corp
Experimental: (§1) Kinase panel profiling was conducted by Reaction Biology Corp. (San Diego, CA, USA). A single dose (1.0 μM) of 6r was tested against 371 recombinant human kinases in the presence of 10 μM ATP.

[2] = biological target: T2, MEKK3 (Homo sapiens, UniProt Q99759)
T2 construct: purchased Reaction Biology Corp
Experimental: as §1

[3] = biological target: T3, NEK1 (Homo sapiens, UniProt Q96PY6)
T3 construct: purchased Reaction Biology Corp
Experimental: as §1

[4] = biological target: T4, PAK3 (Homo sapiens, UniProt O75914)
T4 construct: purchased Reaction Biology Corp
Experimental: as §1

[5] = biological target: T5, AURORA B (Homo sapiens, UniProt Q96GD4)
T5 construct: purchased Reaction Biology Corp
Experimental: as §1

[6] = biological target: T6, ULK1 (Homo sapiens, UniProt O75385)
T6 construct: purchased Reaction Biology Corp
Experimental: as §1

[7] = biological target: T7, IKKb/IKBKB (Homo sapiens, UniProt O14920)
T7 construct: purchased Reaction Biology Corp
Experimental: as §1

[8] = biological target: T8, AKT2 (Homo sapiens, UniProt P31751)
T8 construct: purchased Reaction Biology Corp
Experimental: as §1

[9] = biological target: T9, HGK/MAP4K4 (Homo sapiens, UniProt O95819)
T9 construct: purchased Reaction Biology Corp
Experimental: as §1

[10] = biological target: T10, YSK4/MAP3K19 (Homo sapiens, UniProt Q56UN5)
T10 construct: purchased Reaction Biology Corp
Experimental: as §1

[11] = biological target: T11, FLT4/VEGFR3 (Homo sapiens, UniProt P35916)
T11 construct: purchased Reaction Biology Corp
Experimental: as §1

[12] = biological target: T12, CK1a1 (Homo sapiens, UniProt P48729)
T12 construct: purchased Reaction Biology Corp
Experimental: as §1

[13] = biological target: T13, GRK1 (Homo sapiens, UniProt Q15835)
T13 construct: purchased Reaction Biology Corp
Experimental: as §1

[14] = biological target: T14, MAPKAPK5/PRAK (Homo sapiens, UniProt Q8IW41)
T14 construct: purchased Reaction Biology Corp
Experimental: as §1

[15] = biological target: T15, CDK3/cyclin E2 (Homo sapiens, UniProt Q00526)
T15 construct: purchased Reaction Biology Corp
Experimental: as §1

[16] = biological target: T16, CLK3 (Homo sapiens, UniProt P49761)
T16 construct: purchased Reaction Biology Corp
Experimental: as §1

[17] = biological target: T17, MUSK (Homo sapiens, UniProt O15146)
T17 construct: purchased Reaction Biology Corp
Experimental: as §1

[18] = biological target: T18, PKCb1 (Homo sapiens, UniProt P05771)
T18 construct: purchased Reaction Biology Corp
Experimental: as §1

[19] = biological target: T19, MYO3b (Homo sapiens, UniProt Q8WXR4)
T19 construct: purchased Reaction Biology Corp
Experimental: as §1

[20] = biological target: T20, MEK1 (Homo sapiens, UniProt Q02750)
T20 construct: purchased Reaction Biology Corp
Experimental: as §1

[21] = biological target: T21, GCK/MAP4K2 (Homo sapiens, UniProt Q12851)
T21 construct: purchased Reaction Biology Corp
Experimental: as §1

[22] = biological target: T22, CDK16/cyclin Y (PCTAIRE) (Homo sapiens, UniProt Q00536)
T22 construct: purchased Reaction Biology Corp
Experimental: as §1

[23] = biological target: T23, HIPK3 (Homo sapiens, UniProt Q9H422)
T23 construct: purchased Reaction Biology Corp
Experimental: as §1

[24] = biological target: T24, CDK5/p35 (Homo sapiens, UniProt Q00535)
T24 construct: purchased Reaction Biology Corp
Experimental: as §1

[25] = biological target: T25, PKCmu/PRKD1 (Homo sapiens, UniProt Q15139)
T25 construct: purchased Reaction Biology Corp
Experimental: as §1

[26] = biological target: T26, CDK9/cyclin T1 (Homo sapiens, UniProt P50750)
T26 construct: purchased Reaction Biology Corp
Experimental: as §1

[27] = biological target: T27, BMPR2 (Homo sapiens, UniProt Q13873)
T27 construct: purchased Reaction Biology Corp
Experimental: as §1

[28] = biological target: T28, JNK1 (Homo sapiens, UniProt P45983)
T28 construct: purchased Reaction Biology Corp
Experimental: as §1

[29] = biological target: T29, TIE2/TEK (Homo sapiens, UniProt Q02763)
T29 construct: purchased Reaction Biology Corp
Experimental: as §1

[30] = biological target: T30, CK2a2 (Homo sapiens, UniProt P19784)
T30 construct: purchased Reaction Biology Corp
Experimental: as §1

[31] = biological target: T31, PAK2 (Homo sapiens, UniProt Q13177)
T31 construct: purchased Reaction Biology Corp
Experimental: as §1

[32] = biological target: T32, GRK3 (Homo sapiens, UniProt P35626)
T32 construct: purchased Reaction Biology Corp
Experimental: as §1

[33] = biological target: T33, PIM2 (Homo sapiens, UniProt Q9P1W9)
T33 construct: purchased Reaction Biology Corp
Experimental: as §1

[34] = biological target: T34, MSK2/RPS6KA4 (Homo sapiens, UniProt O75676)
T34 construct: purchased Reaction Biology Corp
Experimental: as §1

[35] = biological target: T35, LYN (Homo sapiens, UniProt P07948)
T35 construct: purchased Reaction Biology Corp
Experimental: as §1

[36] = biological target: T36, MEKK1 (Homo sapiens, UniProt Q13233)
T36 construct: purchased Reaction Biology Corp
Experimental: as §1

[37] = biological target: T37, CK1epsilon (Homo sapiens, UniProt P49674)
T37 construct: purchased Reaction Biology Corp
Experimental: as §1

[38] = biological target: T38, STK38L/NDR2 (Homo sapiens, UniProt Q9Y2H1)
T38 construct: purchased Reaction Biology Corp
Experimental: as §1

[39] = biological target: T39, FMS (Homo sapiens, UniProt P07333)
T39 construct: purchased Reaction Biology Corp
Experimental: as §1

[40] = biological target: T40, BMX/ETK (Homo sapiens, UniProt P51813)
T40 construct: purchased Reaction Biology Corp
Experimental: as §1

[41] = biological target: T41, WNK2 (Homo sapiens, UniProt Q9Y3S1)
T41 construct: purchased Reaction Biology Corp
Experimental: as §1

[42] = biological target: T42, ERK2/MAPK1 (Homo sapiens, UniProt P28482)
T42 construct: purchased Reaction Biology Corp
Experimental: as §1

T3 sequence (Q96PY6 whole entry): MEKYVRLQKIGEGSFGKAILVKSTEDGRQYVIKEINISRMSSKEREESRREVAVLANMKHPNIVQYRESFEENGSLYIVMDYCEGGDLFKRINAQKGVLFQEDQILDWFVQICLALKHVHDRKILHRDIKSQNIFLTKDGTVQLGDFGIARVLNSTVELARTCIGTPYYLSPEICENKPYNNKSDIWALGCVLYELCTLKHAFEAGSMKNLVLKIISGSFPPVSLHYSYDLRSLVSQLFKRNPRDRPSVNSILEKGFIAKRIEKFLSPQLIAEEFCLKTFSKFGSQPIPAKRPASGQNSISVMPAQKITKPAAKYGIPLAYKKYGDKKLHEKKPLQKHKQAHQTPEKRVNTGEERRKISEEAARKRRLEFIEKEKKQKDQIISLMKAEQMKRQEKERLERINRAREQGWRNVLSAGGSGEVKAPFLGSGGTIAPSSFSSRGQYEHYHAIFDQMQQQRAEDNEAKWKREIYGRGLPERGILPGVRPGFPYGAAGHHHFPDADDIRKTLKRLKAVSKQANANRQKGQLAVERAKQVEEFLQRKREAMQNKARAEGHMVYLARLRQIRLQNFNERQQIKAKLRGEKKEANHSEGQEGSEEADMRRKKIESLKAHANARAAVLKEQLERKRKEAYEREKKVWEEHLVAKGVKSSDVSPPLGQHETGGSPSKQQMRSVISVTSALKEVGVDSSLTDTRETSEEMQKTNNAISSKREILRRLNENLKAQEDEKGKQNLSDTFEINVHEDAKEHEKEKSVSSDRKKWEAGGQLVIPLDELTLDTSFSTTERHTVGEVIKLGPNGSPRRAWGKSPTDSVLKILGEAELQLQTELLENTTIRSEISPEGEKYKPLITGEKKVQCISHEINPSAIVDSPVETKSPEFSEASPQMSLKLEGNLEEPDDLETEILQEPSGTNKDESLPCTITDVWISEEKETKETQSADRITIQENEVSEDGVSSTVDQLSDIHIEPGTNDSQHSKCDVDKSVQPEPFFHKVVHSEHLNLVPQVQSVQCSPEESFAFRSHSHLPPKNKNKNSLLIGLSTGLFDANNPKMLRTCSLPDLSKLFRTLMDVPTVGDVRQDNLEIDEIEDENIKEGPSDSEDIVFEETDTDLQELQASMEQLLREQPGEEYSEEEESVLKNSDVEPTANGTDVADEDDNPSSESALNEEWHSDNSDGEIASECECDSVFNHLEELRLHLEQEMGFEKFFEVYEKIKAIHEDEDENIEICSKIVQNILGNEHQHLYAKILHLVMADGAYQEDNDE
T30 sequence (P19784 whole entry): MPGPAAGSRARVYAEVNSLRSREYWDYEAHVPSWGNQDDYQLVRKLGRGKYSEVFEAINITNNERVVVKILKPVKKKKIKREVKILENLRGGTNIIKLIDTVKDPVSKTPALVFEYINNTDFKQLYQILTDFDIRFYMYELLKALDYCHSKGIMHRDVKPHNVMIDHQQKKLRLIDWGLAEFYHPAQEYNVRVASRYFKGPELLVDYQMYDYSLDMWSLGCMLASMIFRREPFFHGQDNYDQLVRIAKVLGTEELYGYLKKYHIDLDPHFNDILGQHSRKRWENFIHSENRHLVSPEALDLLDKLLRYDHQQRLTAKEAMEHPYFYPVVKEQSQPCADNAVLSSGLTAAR
T19 sequence (Q8WXR4 whole entry): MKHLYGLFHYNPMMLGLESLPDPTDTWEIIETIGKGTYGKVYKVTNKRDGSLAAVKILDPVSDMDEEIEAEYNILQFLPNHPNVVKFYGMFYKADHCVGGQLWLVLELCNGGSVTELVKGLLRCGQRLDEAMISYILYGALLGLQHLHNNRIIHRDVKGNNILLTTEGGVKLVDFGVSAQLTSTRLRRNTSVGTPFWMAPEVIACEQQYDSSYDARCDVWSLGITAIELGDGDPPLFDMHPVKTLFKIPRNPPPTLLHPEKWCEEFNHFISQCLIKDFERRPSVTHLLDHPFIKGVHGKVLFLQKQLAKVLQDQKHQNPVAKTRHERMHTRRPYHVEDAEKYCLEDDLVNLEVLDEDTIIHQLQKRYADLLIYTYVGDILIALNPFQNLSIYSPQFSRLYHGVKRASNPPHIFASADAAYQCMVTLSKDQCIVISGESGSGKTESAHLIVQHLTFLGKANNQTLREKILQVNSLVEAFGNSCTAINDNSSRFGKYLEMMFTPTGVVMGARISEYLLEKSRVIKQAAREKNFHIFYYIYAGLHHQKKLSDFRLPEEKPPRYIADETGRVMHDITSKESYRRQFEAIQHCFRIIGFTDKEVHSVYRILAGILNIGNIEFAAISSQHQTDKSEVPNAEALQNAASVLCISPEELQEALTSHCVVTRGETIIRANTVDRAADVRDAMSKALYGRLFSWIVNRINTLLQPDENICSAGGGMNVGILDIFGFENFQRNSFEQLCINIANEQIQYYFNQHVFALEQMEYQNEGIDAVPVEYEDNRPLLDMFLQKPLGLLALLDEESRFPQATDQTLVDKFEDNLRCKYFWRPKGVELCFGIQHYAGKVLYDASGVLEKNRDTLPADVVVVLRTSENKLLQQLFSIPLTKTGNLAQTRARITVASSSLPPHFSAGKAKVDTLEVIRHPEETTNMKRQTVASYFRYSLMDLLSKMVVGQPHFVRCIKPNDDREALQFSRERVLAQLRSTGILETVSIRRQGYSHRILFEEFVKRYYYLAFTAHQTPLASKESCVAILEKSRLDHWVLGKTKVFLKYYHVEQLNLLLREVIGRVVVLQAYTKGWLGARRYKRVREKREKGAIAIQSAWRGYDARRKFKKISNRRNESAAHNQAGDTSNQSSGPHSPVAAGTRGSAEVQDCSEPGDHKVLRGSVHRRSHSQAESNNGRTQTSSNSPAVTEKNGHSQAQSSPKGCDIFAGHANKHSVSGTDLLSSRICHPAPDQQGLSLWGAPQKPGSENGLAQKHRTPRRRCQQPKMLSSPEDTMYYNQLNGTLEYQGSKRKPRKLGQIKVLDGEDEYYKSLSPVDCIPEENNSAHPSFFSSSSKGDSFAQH
T16 sequence (P49761 whole entry): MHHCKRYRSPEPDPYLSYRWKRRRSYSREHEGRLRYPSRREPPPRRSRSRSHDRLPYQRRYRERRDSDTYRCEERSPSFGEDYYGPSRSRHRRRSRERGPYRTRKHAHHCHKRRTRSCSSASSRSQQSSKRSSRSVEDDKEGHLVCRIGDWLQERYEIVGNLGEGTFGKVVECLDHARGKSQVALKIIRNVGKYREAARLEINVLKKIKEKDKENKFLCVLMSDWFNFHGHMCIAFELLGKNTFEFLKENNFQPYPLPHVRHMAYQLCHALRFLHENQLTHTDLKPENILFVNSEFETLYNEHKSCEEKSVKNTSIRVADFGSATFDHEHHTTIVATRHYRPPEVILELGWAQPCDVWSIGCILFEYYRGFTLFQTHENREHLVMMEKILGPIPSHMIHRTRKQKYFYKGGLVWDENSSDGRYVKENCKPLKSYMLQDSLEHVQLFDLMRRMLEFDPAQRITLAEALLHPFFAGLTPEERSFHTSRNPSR
T39 sequence (P07333 20-972): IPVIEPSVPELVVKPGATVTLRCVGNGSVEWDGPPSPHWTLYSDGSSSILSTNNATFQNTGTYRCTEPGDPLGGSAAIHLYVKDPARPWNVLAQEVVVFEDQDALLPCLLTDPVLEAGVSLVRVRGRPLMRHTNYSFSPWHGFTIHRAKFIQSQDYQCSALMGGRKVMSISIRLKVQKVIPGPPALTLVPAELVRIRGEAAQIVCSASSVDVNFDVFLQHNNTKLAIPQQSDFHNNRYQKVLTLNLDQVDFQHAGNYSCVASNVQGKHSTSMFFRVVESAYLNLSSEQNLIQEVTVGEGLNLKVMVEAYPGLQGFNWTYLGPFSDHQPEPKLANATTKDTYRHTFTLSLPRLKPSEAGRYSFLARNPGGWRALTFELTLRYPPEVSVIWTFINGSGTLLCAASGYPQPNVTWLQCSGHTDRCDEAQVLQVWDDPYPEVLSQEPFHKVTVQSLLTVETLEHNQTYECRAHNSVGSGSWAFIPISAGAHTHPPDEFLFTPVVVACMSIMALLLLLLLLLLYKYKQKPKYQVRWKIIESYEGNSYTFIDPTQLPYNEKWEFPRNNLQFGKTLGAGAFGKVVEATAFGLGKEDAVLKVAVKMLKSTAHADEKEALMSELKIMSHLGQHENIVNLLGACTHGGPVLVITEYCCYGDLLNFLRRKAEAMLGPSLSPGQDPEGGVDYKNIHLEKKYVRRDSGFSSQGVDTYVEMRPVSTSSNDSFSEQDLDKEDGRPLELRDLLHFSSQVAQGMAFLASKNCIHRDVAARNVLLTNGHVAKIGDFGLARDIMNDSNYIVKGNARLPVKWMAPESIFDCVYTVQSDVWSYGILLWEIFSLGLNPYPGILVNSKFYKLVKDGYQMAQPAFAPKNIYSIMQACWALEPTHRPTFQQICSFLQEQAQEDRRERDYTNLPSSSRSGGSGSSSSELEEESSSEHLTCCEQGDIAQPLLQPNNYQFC
T38 sequence (Q9Y2H1 whole entry): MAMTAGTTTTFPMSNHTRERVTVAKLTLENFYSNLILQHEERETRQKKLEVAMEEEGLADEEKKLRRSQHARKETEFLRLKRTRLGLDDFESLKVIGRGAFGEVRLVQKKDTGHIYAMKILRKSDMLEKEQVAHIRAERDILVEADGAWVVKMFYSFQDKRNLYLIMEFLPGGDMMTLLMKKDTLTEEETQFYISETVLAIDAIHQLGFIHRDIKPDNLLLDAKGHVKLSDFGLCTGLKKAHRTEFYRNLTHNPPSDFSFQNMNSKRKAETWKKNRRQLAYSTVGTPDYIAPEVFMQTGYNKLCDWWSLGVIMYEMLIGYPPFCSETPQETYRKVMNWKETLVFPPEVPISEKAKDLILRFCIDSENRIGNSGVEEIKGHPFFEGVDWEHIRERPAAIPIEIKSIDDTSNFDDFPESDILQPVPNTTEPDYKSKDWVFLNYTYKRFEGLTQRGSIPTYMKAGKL

**Q.** For `Cc1ccc(NC(=O)c2ccc(CN3CCN(C)CC3)c(C(F)(F)F)c2)cc1-c1cnc2sc(N)nc2c1` [6r], which inhibition at 1 µM [1] is on record?
**A.** The inhibition at 1 µM was 0%.

**Q.** What about the inhibition at 1 µM [2] of the same compound?
**A.** The inhibition at 1 µM was 4.9%.

**Q.** What about the inhibition at 1 µM [3] of the same compound?
**A.** Its inhibition at 1 µM is 2.6%.

**Q.** What about the inhibition at 1 µM [4] of the same compound?
**A.** The inhibition at 1 µM was 8.3%.

**Q.** And the inhibition at 1 µM [5]?
**A.** Its inhibition at 1 µM is 0%.

**Q.** What about the inhibition at 1 µM [6] of the same compound?
**A.** The inhibition at 1 µM was 3.7%.

**Q.** And the inhibition at 1 µM [7]?
**A.** Its inhibition at 1 µM is 0%.

**Q.** What about the inhibition at 1 µM [8] of the same compound?
**A.** The inhibition at 1 µM was 14%.

**Q.** And the inhibition at 1 µM [9]?
**A.** The inhibition at 1 µM was 0%.

**Q.** And the inhibition at 1 µM [10]?
**A.** The inhibition at 1 µM was 0%.

**Q.** And the inhibition at 1 µM [11]?
**A.** The inhibition at 1 µM was 77.8%.

**Q.** What about the inhibition at 1 µM [12] of the same compound?
**A.** Its inhibition at 1 µM is 13.7%.

**Q.** And the inhibition at 1 µM [13]?
**A.** Its inhibition at 1 µM is 16.7%.

**Q.** And the inhibition at 1 µM [14]?
**A.** Its inhibition at 1 µM is 0%.

**Q.** And the inhibition at 1 µM [15]?
**A.** The inhibition at 1 µM was 12.4%.

**Q.** What about the inhibition at 1 µM [16] of the same compound?
**A.** Its inhibition at 1 µM is 0%.

**Q.** What about the inhibition at 1 µM [17] of the same compound?
**A.** The inhibition at 1 µM was 10.8%.

**Q.** What about the inhibition at 1 µM [18] of the same compound?
**A.** The inhibition at 1 µM was 10.5%.

**Q.** What about the inhibition at 1 µM [19] of the same compound?
**A.** Its inhibition at 1 µM is 0%.

**Q.** And the inhibition at 1 µM [20]?
**A.** Its inhibition at 1 µM is 14.4%.

**Q.** What about the inhibition at 1 µM [21] of the same compound?
**A.** Its inhibition at 1 µM is 21.8%.

**Q.** And the inhibition at 1 µM [22]?
**A.** Its inhibition at 1 µM is 0.8%.

**Q.** What about the inhibition at 1 µM [23] of the same compound?
**A.** Its inhibition at 1 µM is 0.2%.

**Q.** And the inhibition at 1 µM [24]?
**A.** Its inhibition at 1 µM is 0.7%.

**Q.** What about the inhibition at 1 µM [25] of the same compound?
**A.** The inhibition at 1 µM was 15.9%.

**Q.** And the inhibition at 1 µM [26]?
**A.** Its inhibition at 1 µM is 0%.

**Q.** What about the inhibition at 1 µM [27] of the same compound?
**A.** The inhibition at 1 µM was 20.6%.

**Q.** What about the inhibition at 1 µM [28] of the same compound?
**A.** Its inhibition at 1 µM is 14%.

**Q.** And the inhibition at 1 µM [29]?
**A.** The inhibition at 1 µM was 24.4%.

**Q.** And the inhibition at 1 µM [30]?
**A.** The inhibition at 1 µM was 1%.

**Q.** And the inhibition at 1 µM [31]?
**A.** Its inhibition at 1 µM is 5.4%.

**Q.** What about the inhibition at 1 µM [32] of the same compound?
**A.** The inhibition at 1 µM was 0%.

**Q.** And the inhibition at 1 µM [33]?
**A.** The inhibition at 1 µM was 0.8%.

**Q.** What about the inhibition at 1 µM [34] of the same compound?
**A.** The inhibition at 1 µM was 17.1%.

**Q.** And the inhibition at 1 µM [35]?
**A.** Its inhibition at 1 µM is 97.5%.

**Q.** And the inhibition at 1 µM [36]?
**A.** The inhibition at 1 µM was 0%.

**Q.** What about the inhibition at 1 µM [37] of the same compound?
**A.** The inhibition at 1 µM was 24.2%.

**Q.** What about the inhibition at 1 µM [38] of the same compound?
**A.** The inhibition at 1 µM was 6.5%.

**Q.** What about the inhibition at 1 µM [39] of the same compound?
**A.** The inhibition at 1 µM was 99%.

**Q.** What about the inhibition at 1 µM [40] of the same compound?
**A.** The inhibition at 1 µM was 31.5%.

**Q.** What about the inhibition at 1 µM [41] of the same compound?
**A.** Its inhibition at 1 µM is 8.7%.

**Q.** And the inhibition at 1 µM [42]?
**A.** The inhibition at 1 µM was 13.5%.
